From ChEMBL document CHEMBL5034035, “Discovery of an Oxycyclohexyl Acid Lysophosphatidic Acid Receptor 1 (LPA1) Antagonist BMS-986278 for the Treatment of Pulmonary Fibrotic Diseases” (J Med Chem, 2021)
Values after ≈ are worked out from the molar mass of the structure shown.

Legend:
[1] = Plasma clearance in Sprague-Dawley rat at 3 mg/kg, po or 1 mg/kg, iv measured up to 24 hrs by LC-MS/MS analysis; format: ADME, organism-based
[2] = Plasma clearance in Cynomolgus monkey at 3 mg/kg, po or 1 mg/kg, iv measured up to 24 hrs by LC-MS/MS analysis; format: ADME, organism-based, Macaca fascicularis
[3] = Oral bioavailability in CD-1 mouse at 3 mg/kg measured up to 24 hrs by LC-MS/MS analysis; format: ADME, organism-based; settings: in vivo
[4] = Oral bioavailability in cynomolgus monkey at 3 mg/kg measured up to 24 hrs by LC-MS/MS analysis; format: ADME, organism-based, Macaca fascicularis; settings: in vivo
[5] = Protein binding in Cynomolgus monkey plasma assessed as free fraction at 3 mg/kg, po or 1 mg/kg, iv measured up to 24 hrs by LC-MS/MS analysis; format: ADME, organism-based, Macaca fascicularis
[6] = molecular target: Phosphatidylcholine translocator ABCB4 (Homo sapiens, UniProt P21439); assay: Inhibition of MDR3 (unknown origin); format: ADME
[7] = Hepatobiliary toxicity in Cynomolgus monkey assessed as cholestasis at up to 150 mg/kg/day measured up to 9 month; format: organism-based, Macaca fascicularis; settings: in vivo, time <=9 months
[8] = Hepatobiliary toxicity in Sprague-Dawley rat assessed as cholestasis at up to 100 mg/kg/day measured up to 6 month; format: organism-based; settings: in vivo, time <=6 months
[9] = Hepatobiliary toxicity in Sprague-Dawley rat assessed as bile duct hyperplasia at up to 100 mg/kg/day measured up to 6 months; format: organism-based; settings: in vivo
hERG [10] = molecular target: T1, hERG (Homo sapiens, UniProt Q12809); assay: Inhibition of hERG at 30 uM by electrophysiological assay relative to control
[11] = Aqueous solubility of compound at pH 7.5; format: physicochemical
Rattus norvegicus [12] = assay: (§1) Anti-fibrotic activity in Sprague-Dawley rat model of bleomycin-induced lung fibrosis assessed as decrease in bleomycin-induced collagen deposition at 3 mg/kg, po BID followed by tracheal administration of bleomycin on day 8 and measured on day 21 by Masson's trichrome staining based HALO densitometric analysis relative to control; format: functional; design: scale not given: the % may be the effect or the level left; settings: time 21 day
Rattus norvegicus [13] = assay: as §1, with “10” for “3”; format: functional; design: scale not given: the % may be the effect or the level left; settings: time 21 day
[14] = Hepatobiliary toxicity in Sprague-Dawley rat assessed as cholangitis at up to 100 mg/kg/day measured up to 6 months; format: organism-based; settings: in vivo
[15] = Hepatobiliary toxicity in Cynomolgus monkey assessed as cholangitis at up to 150 mg/kg/day measured up to 9 months; format: organism-based, Macaca fascicularis; settings: in vivo
[16] = AUC (0 to 24 hrs) in Sprague-Dawley rat plasma at 300 mg/kg/day; format: ADME, organism-based; design: time < 24 hr, dose 300 mg/kg/day
[17] = AUC (0 to 24 hrs) in Cynomolgus monkey plasma at 150 mg/kg/day; format: ADME, organism-based, Macaca fascicularis; design: time < 24 hr, dose 150 mg/kg/day
[18] = Drug metabolism in dog hepatocytes assessed as carbamate hydrolytic product formation at 10 uM measured after 2 hrs by LC/UV/MS analysis; format: ADME, cell-based, Canis lupus familiaris, Hepatocyte
[19] = Drug metabolism in monkey hepatocytes assessed as carbamate hydrolytic product formation at 10 uM measured after 2 hrs by LC/UV/MS analysis; format: ADME, cell-based, Macaca mulatta, Hepatocyte; settings: rhesus monkey
[20] = Drug metabolism in mouse hepatocytes assessed as carbamate hydrolytic product formation at 10 uM measured after 2 hrs by LC/UV/MS analysis; format: ADME, cell-based, Hepatocyte
[21] = Drug metabolism in human hepatocytes assessed as carbamate hydrolytic product formation at 10 uM measured after 2 hrs by LC/UV/MS analysis; format: ADME, cell-based, Hepatocyte
Rattus norvegicus [22] = assay: as §1, with “30” for “3”; format: functional; design: scale not given: the % may be the effect or the level left
[23] = Hepatobiliary toxicity in Cynomolgus monkey assessed as bile duct hyperplasia at up to 150 mg/kg/day measured up to 9 months; format: organism-based, Macaca fascicularis; settings: in vivo
[24] = Drug metabolism in human hepatocytes assessed as N-demethylation metabolite formation at 10 uM measured after 2 hrs by LC/UV/MS analysis; format: ADME, cell-based, Hepatocyte
[25] = Drug metabolism in monkey hepatocytes assessed as N-demethylation metabolite formation at 10 uM measured after 2 hrs by LC/UV/MS analysis; format: ADME, cell-based, Macaca mulatta, Hepatocyte; settings: rhesus monkey
[26] = Drug metabolism in rat hepatocytes assessed as N-demethylation metabolite formation at 10 uM measured after 2 hrs by LC/UV/MS analysis; format: ADME, cell-based, Hepatocyte
animal or person [27] = settings: Mus musculus, CD-1
animal or person [28] = settings: Mus musculus, CD-1; remark: listed apart in the source
hERG [29] = molecular target: T1, hERG; assay: Inhibition of hERG at 10 uM by electrophysiological assay relative to control
[30] = AUC (0 to 24 hrs) in Cynomolgus monkey plasma at 500 mg/kg, po administered for 4 weeks; format: ADME, organism-based, Macaca fascicularis; design: route oral, time 4 weeks, dose 500 mg/kg
[31] = Hepatobiliary toxicity in Cynomolgus monkey assessed as bile duct hyperplasia measured up to 1 month; design: species or system Macaca fascicularis; settings: in vivo, time <=1 months
[32] = Metabolic stability in liver microsomes (unknown origin) assessed as half life; format: ADME, Microsome
[33] = Drug metabolism in human hepatocytes assessed as formation of acyl glucuronide metabolites at 10 uM measured after 2 hrs by LC/UV/MS analysis; format: ADME, cell-based, Hepatocyte
[34] = Hepatobiliary toxicity in Cynomolgus monkey assessed as cholangitis measured up to 1 month; design: species or system Macaca fascicularis; settings: in vivo, time <=1 months
[35] = Hepatobiliary toxicity in Cynomolgus monkey assessed as cholestasis measured up to 1 month; design: species or system Macaca fascicularis; settings: time <=1 months
Rattus norvegicus [36] = assay: Anti-fibrotic activity in Sprague-Dawley rat model of bleomycin-induced lung fibrosis assessed as decrease in bleomycin-induced collagen deposition by measuring decrease in PSR-stained lung sections at 30 mg/kg, po BID for 21 days followed by tracheal administration of bleomycin by PSR staining based HALO densitometric analysis relative to control; format: functional; design: scale not given: the % may be the effect or the level left; settings: time 21 day
[37] = AUC (0 to 24 hrs) in Cynomolgus monkey plasma at 50 mg/kg, po administered for 7 days; format: ADME, organism-based, Macaca fascicularis; design: route oral, time 7 day, dose 50 mg/kg
hERG (KCNH2) = hERG (KCNH2) (Homo sapiens, UniProt Q12809); assay: Inhibition of hERG at 15 uM by electrophysiological assay relative to control
Chain of hERG (KCNH2) (Q12809 whole entry): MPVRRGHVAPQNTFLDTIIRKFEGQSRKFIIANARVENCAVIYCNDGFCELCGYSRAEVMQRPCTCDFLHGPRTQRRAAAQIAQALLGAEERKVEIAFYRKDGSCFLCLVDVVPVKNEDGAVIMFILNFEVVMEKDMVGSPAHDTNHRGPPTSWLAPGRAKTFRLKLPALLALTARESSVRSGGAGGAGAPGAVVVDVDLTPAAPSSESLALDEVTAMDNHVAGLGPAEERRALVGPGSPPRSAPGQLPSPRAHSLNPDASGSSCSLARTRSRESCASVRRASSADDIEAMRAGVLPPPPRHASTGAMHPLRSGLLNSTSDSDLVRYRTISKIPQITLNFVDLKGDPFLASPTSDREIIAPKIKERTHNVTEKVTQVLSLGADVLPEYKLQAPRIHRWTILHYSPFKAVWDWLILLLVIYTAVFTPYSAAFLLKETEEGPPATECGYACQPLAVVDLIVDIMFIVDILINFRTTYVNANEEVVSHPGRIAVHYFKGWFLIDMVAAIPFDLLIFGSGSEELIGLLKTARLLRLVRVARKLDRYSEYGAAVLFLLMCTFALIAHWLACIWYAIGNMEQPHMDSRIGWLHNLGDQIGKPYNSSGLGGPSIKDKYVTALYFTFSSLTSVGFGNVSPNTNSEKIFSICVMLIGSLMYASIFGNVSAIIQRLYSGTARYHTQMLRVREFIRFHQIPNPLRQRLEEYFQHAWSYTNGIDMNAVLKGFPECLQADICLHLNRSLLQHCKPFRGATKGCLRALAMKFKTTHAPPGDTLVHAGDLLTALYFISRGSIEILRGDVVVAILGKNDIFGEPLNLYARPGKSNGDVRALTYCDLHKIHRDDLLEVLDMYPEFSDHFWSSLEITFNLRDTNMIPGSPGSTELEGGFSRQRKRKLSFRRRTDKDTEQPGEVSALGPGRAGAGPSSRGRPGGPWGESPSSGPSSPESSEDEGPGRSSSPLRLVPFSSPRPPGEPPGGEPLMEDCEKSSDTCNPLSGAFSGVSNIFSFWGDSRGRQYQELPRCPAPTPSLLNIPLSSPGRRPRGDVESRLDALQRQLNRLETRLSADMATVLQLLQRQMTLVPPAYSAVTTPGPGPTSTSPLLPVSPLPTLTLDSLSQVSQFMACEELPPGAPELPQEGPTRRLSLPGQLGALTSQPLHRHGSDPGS

T1 sequence (Q12809 whole entry): as above
Chain of Phosphatidylcholine translocator ABCB4 (P21439 whole entry): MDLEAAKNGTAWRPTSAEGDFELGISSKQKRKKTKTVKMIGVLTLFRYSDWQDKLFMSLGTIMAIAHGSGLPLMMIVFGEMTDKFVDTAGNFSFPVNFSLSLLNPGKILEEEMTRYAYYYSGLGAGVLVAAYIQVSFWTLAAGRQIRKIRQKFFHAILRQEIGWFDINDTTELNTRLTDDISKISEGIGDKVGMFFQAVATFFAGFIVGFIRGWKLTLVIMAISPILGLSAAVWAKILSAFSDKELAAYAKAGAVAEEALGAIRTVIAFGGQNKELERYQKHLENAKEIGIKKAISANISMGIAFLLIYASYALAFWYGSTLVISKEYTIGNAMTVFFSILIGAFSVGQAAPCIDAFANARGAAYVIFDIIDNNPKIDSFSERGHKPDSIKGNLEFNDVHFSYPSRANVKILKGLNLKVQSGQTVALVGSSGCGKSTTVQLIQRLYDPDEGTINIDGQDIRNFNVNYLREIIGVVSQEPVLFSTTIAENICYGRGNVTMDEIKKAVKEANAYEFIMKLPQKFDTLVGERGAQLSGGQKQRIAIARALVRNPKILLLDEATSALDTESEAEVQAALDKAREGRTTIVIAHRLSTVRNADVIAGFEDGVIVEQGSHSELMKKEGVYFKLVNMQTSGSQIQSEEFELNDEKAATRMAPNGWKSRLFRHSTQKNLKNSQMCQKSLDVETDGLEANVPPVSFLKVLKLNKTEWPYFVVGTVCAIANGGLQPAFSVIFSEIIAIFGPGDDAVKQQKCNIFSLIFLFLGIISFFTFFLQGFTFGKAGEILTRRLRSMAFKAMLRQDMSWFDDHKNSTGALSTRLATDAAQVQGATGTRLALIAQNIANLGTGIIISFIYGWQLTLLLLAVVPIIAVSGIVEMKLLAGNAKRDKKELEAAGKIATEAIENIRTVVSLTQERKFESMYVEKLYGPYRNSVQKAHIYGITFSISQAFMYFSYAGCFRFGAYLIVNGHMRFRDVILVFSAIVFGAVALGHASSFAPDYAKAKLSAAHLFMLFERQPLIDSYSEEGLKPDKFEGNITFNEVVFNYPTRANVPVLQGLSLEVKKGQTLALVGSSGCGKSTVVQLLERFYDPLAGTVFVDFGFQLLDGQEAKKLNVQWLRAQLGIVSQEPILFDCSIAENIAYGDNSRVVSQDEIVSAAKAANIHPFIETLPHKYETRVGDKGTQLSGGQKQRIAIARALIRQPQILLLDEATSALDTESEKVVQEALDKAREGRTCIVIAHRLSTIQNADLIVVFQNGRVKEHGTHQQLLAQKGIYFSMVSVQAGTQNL

SMILES: CCCN(C)C(=O)OCc1c(-c2ccc(O[C@H]3CCC[C@H](C(=O)O)C3)c(C)n2)nnn1C [ADMILPARANT]
- clearance [1]: 0.9 L/h/kg
- clearance [2]: 0.12 L/h/kg
- bioavailability [3]: 70%
- bioavailability [4]: 79%
- fraction unbound at 24 h [5]: 0.008
- IC50 [6]: > 100 µM
- Activity [7]: Non-Toxic
- Activity [8]: Non-Toxic
- Activity [9]: Non-Toxic
- inhibition at 30 µM (hERG [10]): 35%
- solubility [11]: 6.21 mg/mL (≈ 13.9 mM)
- Activity (Rattus norvegicus [12]): 48%
- Activity (Rattus norvegicus [13]): 56%
- Activity [14]: Non-Toxic
- Activity [15]: Non-Toxic
- AUC at 24 h [16]: 1140 µg·h/mL
- AUC at 24 h [17]: 1140 µg·h/mL
- Drug metabolism [18]: Metabolite_Detected
- Drug metabolism [19]: Metabolite_Detected
- Drug metabolism [20]: Metabolite_Detected
- Drug metabolism [21]: Metabolite_Detected
- Activity (Rattus norvegicus [22]): 41%
- Activity [23]: Non-Toxic
- Drug metabolism [24]: Metabolite_Detected
- Drug metabolism [25]: Metabolite_Detected
- Drug metabolism [26]: Metabolite_Detected
- IC50 (animal or person [27]): 174 µM
- IC50 (animal or person [28]): 48 µM

SMILES: Cc1nc(-c2nnn(C)c2COC(=O)N(C)CC2CCC2)ccc1O[C@H]1CCC[C@H](C(=O)O)C1
- clearance [1]: 6.27 L/h/kg
- clearance [2]: 1.02 L/h/kg
- bioavailability [3]: 91%
- bioavailability [4]: 65%
- fraction unbound at 24 h [5]: 0.009
- inhibition at 10 µM (hERG [29]): 6%
- AUC at 672 h [30]: 962 µg·h/mL
- Activity [31]: Non-Toxic
- half-life [32]: > 55 min
- Drug metabolism [33]: Metabolite_Detected
- Drug metabolism [21]: Metabolite_Notdetected
- Activity [34]: Non-Toxic
- Activity [35]: Non-Toxic

SMILES: Cc1noc(-c2ccc(-c3ccc(C4(C(=O)O)CC4)cc3)cc2)c1NC(=O)O[C@H](C)c1ccccc1 [BMS-986020]
- IC50 [6]: 7.5 µM
- Activity (Rattus norvegicus [36]): 63%
- AUC at 168 h [37]: 74 µg·h/mL
- inhibition at 15 µM (hERG (KCNH2)): 7%
